{"source": "patent US9688989B2", "about": "“H4 receptor inhibitors for treating tinnitus” (SENSORION, priority 2012, dated 2017)", "key": {"[1]": {"test_system": "tinnitus induced by sodium salicylate or noise exposure", "experiment": "Gap-Prepulse Inhibition of Acoustic Startle (GPIAS) behavioral model of tinnitus", "type": "in vivo, adult rats", "conditions": "rats, single i.p. administration, versus pre-treatment or vehicle", "procedure": "The aim of these in vivo tests is to measure the efficacy of H4R antagonists to decrease (transient and permanent) tinnitus symptoms induced either by sodium salicylate or by high level noise exposure. Evaluation of efficacy is performed in adult rats using the tinnitus test developed by Turner et al. 2006: the Gap-Prepulse Inhibition of Acoustic Startle (GPIAS) behavioral model. This model uses a gap in a constant acoustic background as a pre-stimulus that reduces the acoustic startle reflex amplitude. Rats perceiving tinnitus in a specific frequency have decreased detection of gap embedded in bands similar to the tinnitus frequency. Reduction of the gating efficiency of the gap produces a larger acoustic startle (reduced GPIAS). The level of GPIAS is measured in baseline condition in a cohort of 6 to 8 adult rats. Tinnitus is induced by an i.p administration of sodium salicylate (250 mg/kg) and GPIAS is measured at […] post-induction to measure the reduction in GPIAS (attesting presence of tinnitus). Rats are treated with H4R antagonists (single i.p. administration) or with the vehicle the same day and GPIAS is measured at different time points according to the PK profile of the compounds Alternatively, tinnitus is induced by a unilateral exposure to a 12 kHz narrow band noise presented at 120-126 dB SPL (the contralateral ear is protected with an ear plug) for 2h. […]"}, "[2]": {"test_system": "spiral ganglion neurons (SGNs)", "experiment": "Whole-cell current-clamp recordings of step-evoked action potentials in dissociated spiral ganglion neurons", "type": "cell-based, Wistar rats", "conditions": "for inhibition at 0.1 µM / inhibition at 100 µM: Rattus norvegicus, Neuron, read-out: inhibition of frequency of A.P firing; for inhibition at 0.1 µM / resting membrane potential, difference versus control: 100 nM; for amplitude of the first spike / frequency of spikes and amplitude of the first spike: transient spikers SGNs; for inhibition at 100 µM / amplitude of the first spike: 100 μM; for frequency of spikes and amplitude of the first spike: all concentration tested", "procedure": "The head of 5-8 days old Wistar rats (CERJ, Le Genest, Berthevin, France) was hemi-sectioned aseptically and the cochlea dissected from the temporal bone. In L15 (Leibovitz) medium (Gibco) medium, the cochlear bone was gently removed using fine forceps to isolate the sensorineural tissue. The spiral ganglion was separated from the organ of Corti just before the habenula perforata, and enzymatically (collagenase 0.75 mg·mL^−1, dispase 1 mg·mL^−1 and DNAse 0.75 mg·mL^−1) dissociated for 15 min at 25° C. After washing thoroughly with a Tyrode's solution (Sigma), a transfer pipette was used to gently dissociate the ganglion neurons in culture medium (DMEM/F-12 medium 1:1, 2% N2 nutrient, 28 mM Glc, 1.5 mM Gln, 15 mM HEPES, 2 μM AraC, 10 ng mL-1 BDNF and 1% penicillin/streptomycin). The spiral ganglion neurons were plated onto culture dishes previously coated with 10 ug·mL-1 laminin (Sigma). These low density cultures were maintained at 37° C. in 5% CO2 for 3 to 5 days prior whole cell patch-clamp experiments.\nEfficacy of H4R antagonist has been tested using two patch clamp technics: whole-cell current-clamp recordings with dissociated spiral ganglion neurons (SGNs) and loose-patch recordings for SGNs in semi-intact cochlea preparations. For these experiments postnatal day (P) 10-14 Wistar rats were used at DIV2-5.\nAll experiments were performed using an Axopatch 200B amplifier. Traces were low-pass filtered at 10-20 kHz, and digitized at 100 kHz with a Digidata 1440A board. Data were stored with PClamp10.2 software (Axon Instruments; Molecular Devices Corp., USA) and were analyzed off-line using Clampfit 10.2 (Molecular Devices) and Origin 8 (OriginLab) softwares.\nThe recording solution contained (in mM): NaCl 135, HEPES 10, glucose 10, MgCl2 1, KCl 5, and CaCl2 2.5, (pH 7.35). For whole-cell patch clamp recordings, recording glass pipettes (4-6 MΩ) were coated with Wax to reduce pipette capacitance and were filled with (in mM): KCl 135, HEPES 10, glucose 10, NaCl 5, EGTA 5, Mg-ATP 3, GTP-Na 1, pH 7.35. For these solutions a minor 3.7 mV liquid junction potential could be measured but membrane voltages were not corrected for it. The osmolarity of all solutions was adjusted to 300 mOsm/L. The control and test solutions were applied using a multiple capillary perfusion system (flow rate˜500 μl/min). After each application of the tested drug, the cells were washed with control buffer.\nRecordings were performed at room temperature (RT; 22-25° C.). In dissociated neurons, a 150-200 pA DC square current (1 s duration) was applied every 6 s in order to elicit trains of action potentials. The pharmacological tests were conducted only when recordings presented the following criteria: series resistance (<10 MΩ on average) no more than 3 times the pipette resistance, stable resting membrane potential (R.M.P) negative to −40 mV, overshooting action potentials (magnitude >60 mV for the first action potential), stable firing for up to a minute in control condition.\nTwo concentrations have been tested: 100 μM and 100 nM.\nTypically, in dissociated SGNs, (FIG. 2A1) small depolarizing current steps (0.1 nA-0.4 nA) evoked two types of action potential discharge: transient (no more than 1-2 spikes-rapidly adapting neurons) and sustained firing (number of spikes increasing linearly above threshold-slowly adapting neurons) (FIG. 2A2). Transient spikers SGNs represented the majority of neurons in our cell cultures (80% versus 20% of sustained spikers neurons)."}, "[3]": {"test_system": "spiral ganglion neurons (SGNs) in semi-intact cochlea preparation", "experiment": "Loose-patch recordings of spontaneous action potentials in semi-intact cochlea preparation", "type": "cell-based, Wistar rats", "conditions": "100 μM bath application, within two minutes, two experiments", "procedure": "For this preparation postnatal day (P) 10-14 Wistar rats were used. First steps of the protocol were similar to the cell culture one until the cochlea was freed from the cochlear bone. Cochlear turns (apical and middle) were dissected and isolated in sterile-filtered L-15 (Leibovitz) Medium. Explants were plated upside down (spiral ganglion neurons on top) on 10 μl of growth factor-reduced Matrigel (BD biosciences) and laminin (10 μg/ml)-coated glass coverslips. These preparations were first incubated for 30 min at 37° C. in a 95%/5% 02/CO2 atmosphere and then cultured for 2 to 5 days in vitro in (50%) F12/(50%) DMEM (Invitrogen) supplemented with (2%) N2 nutrient (Fisher Scientific). […]\nAll experiments were performed using an Axopatch 200B amplifier. […] Data were stored with PClamp10.2 software (Axon Instruments; Molecular Devices Corp., USA) and were analyzed off-line using Clampfit 10.2 (Molecular Devices) and Origin 8 (OriginLab) softwares.\nThe recording solution contained (in mM): NaCl 135, HEPES 10, glucose 10, MgCl2 1, KCl 5, and CaCl2 2.5, (pH 7.35). […] For these solutions a minor 3.7 mV liquid junction potential could be measured but membrane voltages were not corrected for it. […]\nIn these semi-intact cochlea preparations, spontaneous discharges of action potential were directly recorded. […] In vitro results were expressed as means±S.E.M. […]"}, "[4]": {"biological_target": "T1, human H3 receptor (Homo sapiens, UniProt Q9Y5N1)", "T1 construct": "expressed in transfected cells; host or cells: SK-N-MC or HEK293 T", "T1 sequence (Q9Y5N1 whole entry)": "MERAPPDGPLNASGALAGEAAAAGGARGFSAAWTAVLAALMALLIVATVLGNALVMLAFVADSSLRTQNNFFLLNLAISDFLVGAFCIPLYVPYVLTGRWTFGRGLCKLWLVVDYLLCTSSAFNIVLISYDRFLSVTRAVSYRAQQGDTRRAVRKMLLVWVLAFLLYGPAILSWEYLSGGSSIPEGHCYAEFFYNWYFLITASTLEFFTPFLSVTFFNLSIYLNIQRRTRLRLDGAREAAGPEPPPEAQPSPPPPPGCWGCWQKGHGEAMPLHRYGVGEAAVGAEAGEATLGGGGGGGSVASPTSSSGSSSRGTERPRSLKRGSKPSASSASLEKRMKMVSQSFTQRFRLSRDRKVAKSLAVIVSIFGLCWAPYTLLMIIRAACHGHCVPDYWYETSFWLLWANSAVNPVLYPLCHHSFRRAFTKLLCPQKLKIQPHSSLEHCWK", "conditions": "radioligand binding; cited from earlier work"}}}
{"smiles": "CN1CCN(C(=O)c2cc3cc(Cl)ccc3[nH]2)CC1", "note": "[JNJ7777120, 1-[(5-chloro-1H-indol-2-yl)carbonyl]-4-methylpiperazine]", "values": [{"measurement": "GPIAS values", "setting": "[1]", "value": "Increase"}, {"measurement": "inhibition at 0.1 µM", "setting": "[2]; sustained SGNs", "value": "21.6 ± 1.7", "unit": "%"}, {"measurement": "inhibition at 100 µM", "setting": "[2]; sustained SGNs", "value": "69 ± 8", "unit": "%"}, {"measurement": "resting membrane potential, difference versus control", "setting": "[2]; sustained SGNs", "value": "0.55±0.2", "unit": "mV"}, {"measurement": "amplitude of the first spike", "setting": "[2]", "value": "73.3±6.1", "unit": "mV"}, {"measurement": "frequency of spikes and amplitude of the first spike", "setting": "[2]", "value": "unaffected"}]}
{"smiles": "CN1CCN(C(=O)c2nc3cc(Cl)ccc3[nH]2)CC1", "note": "[JNJ10191584, 1-[(5-chloro-1H-benzimidazol-2-yl)carbonyl]-4-methylpiperazine]", "values": [{"measurement": "GPIAS values", "setting": "[1]", "value": "Increase"}, {"measurement": "spontaneous (synaptically driven) action potential discharge", "setting": "[3]", "value": "fully abolished"}, {"measurement": "inhibition at 0.1 µM", "setting": "[2]; sustained SGNs", "value": "25.2 ± 2", "unit": "%"}, {"measurement": "inhibition at 100 µM", "setting": "[2]; sustained SGNs", "value": "46.2 ± 12", "unit": "%"}, {"measurement": "resting membrane potential, difference versus control", "setting": "[2]; sustained SGNs", "value": "−0.13±0.4", "unit": "mV"}, {"measurement": "resting membrane potential, increase versus control", "setting": "[2]; sustained SGNs, high concentration (100 μM)", "value": "1.5±1", "unit": "mV"}, {"measurement": "amplitude of the first spike", "setting": "[2]", "value": "83.7±5.2", "unit": "mV"}, {"measurement": "frequency of spikes and amplitude of the first spike", "setting": "[2]", "value": "unaffected"}]}
{"smiles": "CNCCc1cnc[nH]1", "note": "[[^3H]N-a-methyl histamine]", "values": [{"measurement": "Kd", "setting": "[4]", "value": 1, "unit": "nM"}]}
